Results reported in US6172262A, “Amphiphilic agents for membrane protein solubilization” (priority 1999, dated 2001).
≈ marks a conversion by molar mass, not a printed value. Read-outs that look alike come from different tables or passages of the source.

Legend:
[1] = CMC values of conventional detergents quoted for comparison; type: physicochemical
[2] = comparison detergent, source not given; cited from earlier work
[3] = CMC by dye uptake (orange OT); type: physicochemical
Description: Triphenylacetic acid 4.0 has a novel amphiphilic geometry and is commercially available.
The addition of the t-butyl group accomplished the goal of increasing the hydrophobic surface area, as indicated by the diminished CMC's.
The CMC of a detergent can be determined experimentally by measuring the solubilization of a water-insoluble dye or fluorophore while varying the concentration of detergent. CMC may also be determined by measuring the diminution of the surface tension of an aqueous solution as a function of detergent concentration. (CMC's determined by either method correlate with each other.) The CMC is determined by extrapolating the plot of solubilization vs. concentration (or surface tension vs. concentration) in the two linear regions above and below the CMC. Where the two lines intersect is the CMC. In this Example, CMC's were determined by the method of Nugebauer, J. M. (1990), Methods in Enzymology, 182:239-253: […]

Bacteriorhodopsin (BR) [4] = molecular target: T1, Bacteriorhodopsin (BR) (Halobacterium salinarum, UniProt P02945); details: reported detergents; cited from earlier work
T1 construct: We used BR solubilization from the PM to evaluate tripod detergents; endogenous in cells
T1 sequence (P02945 14-261 limits assumed): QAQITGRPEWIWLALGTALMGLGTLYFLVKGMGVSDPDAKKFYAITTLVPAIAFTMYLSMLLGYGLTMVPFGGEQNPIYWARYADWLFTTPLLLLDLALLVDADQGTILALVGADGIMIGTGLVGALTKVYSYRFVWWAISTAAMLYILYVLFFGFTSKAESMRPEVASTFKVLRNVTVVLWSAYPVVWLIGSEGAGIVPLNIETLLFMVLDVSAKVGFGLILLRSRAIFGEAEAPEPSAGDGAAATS

Bacteriorhodopsin (BR) [5] = molecular target: T1, Bacteriorhodopsin (BR); assay: Solubilization of bacteriorhodopsin (BR) from purple membrane (PM)
Experimental: We used BR solubilization from the PM to evaluate tripod detergents synthesized using the modular synthetic approach described above. The retinal chromophore of BR allowed us to quantify solubilized material by UV. Solubilized BR is defined as the intact protein left in the supernatant after a sample is centrifuged for 30 minutes at 300,000 g. The percent BR solubilized is determined by dividing the absorbance of the supernatant by the absorbance of the solution before centrifugation.
Solubilization experiments were conducted by making a series of solutions with constant concentration of PM and varying the concentration of detergent. […] The absorbance at the λmax (between 540 nm and 570 nm) was then measured, and immediately afterward the samples were centrifuged for 30 minutes at 300,000 g. The supernatant was carefully removed so as not to disturb pelleted material. Absorbance measurements were made again, and the ratio of the supernatant absorbance to the absorbance before centrifugation provided the percent solubilization.

Aqueous solubility = type: physicochemical; details: water

For `Br.CCCCCCCCCCCCN` [dodecylammonium bromide], the “CMC ratio, dodecylammonium bromide vs N-oxide analog (LDAO)” value [1] is listed as greater than 7 times larger and the CMC [2] is listed as 15 mM.
For `CCCCCCCCCCCC[N+](C)(C)[O-]` [DDAO, dodecylammonium-N-oxide], the CMC [2] is listed as 10.4 mM.
With `CC(C)(C)c1ccc(C(CC(=O)N(CC[N+](C)(C)[O-])CC[N+](C)(C)[O-])(c2ccccc2)c2ccccc2)cc1` [Detergent 4.20] the CMC ([3]; dye uptake) was “about 12.5 mM”.
For `CCCCCCCCCO[C@@H]1O[C@H](CO)[C@@H](O)[C@H](O)[C@H]1O` [nonyl glucoside (NG), nonyl glucoside], the “removal of BR from the purple membrane (in words)” value (“removal of BR” for short) (Bacteriorhodopsin (BR) [4]) is listed as “successfully remove BR from its native environment”.
In the case of `CCCCCCCCO[C@@H]1O[C@H](CO)[C@@H](O)[C@H](O)[C@H]1O` [OG], the “removal of BR” value (Bacteriorhodopsin (BR) [4]) is given as “successfully remove BR from its native environment”.
With Triton X-100 [reference compound] the “BR solubilization (in words)” value (Bacteriorhodopsin (BR) [5]) was “effective at solubilizing BR”, the “time to solubilize BR” value (Bacteriorhodopsin (BR) [5]; pH 5) was 49 h and the “time to solubilize BR” value (Bacteriorhodopsin (BR) [5]; pH 6.9) was 24 h. The “removal of BR” value (Bacteriorhodopsin (BR) [4]) was “successfully remove BR from its native environment”.
For `O=C(O)C(c1ccccc1)(c1ccccc1)c1ccccc1` [Detergent 4.1], the CMC ([3]; orange OT uptake) was 130 mM and the solubility (Aqueous solubility; read-out: solubility) was 210 mM (≈ 60.6 mg/mL).
With `C[N+](C)([O-])CCN(CC[N+](C)(C)[O-])C(=O)CC(c1ccccc1)(c1ccccc1)c1ccccc1` [Detergent 4.10] the CMC ([3]; dye uptake) was “about 80 mM”, the “solubility in water (in words)” value (Aqueous solubility) was “very soluble in water” and the solubility (Aqueous solubility; read-out: solubility in water) was greater than 2000 mM.
